Values quoted from earlier work in US20180235982A1, “Treatment for Spirochete borne illness” (priority 2017, published 2018).

Conditions: no species, matrix or method given

half-life: 12 to 14 h
Compound: CN(C)c1ccc(O)c2c1C[C@H]1C[C@H]3[C@H](N(C)C)C(O)=C(C(N)=O)C(=O)[C@@]3(O)C(O)=C1C2=O [Minocycline]
